The assay concerns MCH receptors. Briefly: MCH receptor activity class (method not given).
[1] abbreviates: class by percent of control at 10^-7 M or IC50.
The mark [2] stands for this setting: class 1-3 by percent of control at 10^-7 M or IC50.
Where [3] appears, read: activity class 1-3: percent of control at 10^-7 M or IC50.
Where [4] appears, read: activity class per percent of control at 10^-7 M or IC50.
The mark [5] stands for this setting: MCH receptor activity class 1-3 (percent of control at 10^-7 M or IC50).
Setting [6] is: class by percent of control at 10^−7 M or IC50.
[7] abbreviates: MCH receptor, class by percent of control at 10^-7 M or IC50.

SMILES strings stand for the structures. Where two headings read alike, the source gives them in different places.

Regarding `CN(C)c1nc(N[C@H]2CC[C@@H](NC(=O)Nc3cc(F)cc(F)c3)CC2)nc2c1CCCC2` [compound 1804], under setting [1], the class is listed as 3 (Class 3 The value of percent of control at 10^−7 M was more than 60% or the value of IC50 was more than 200 nM.).
On the same count and under the same terms, under `CSc1ccc(Cl)c(C(=O)N[C@H]2CC[C@@H](Nc3nccc(N(C)C)n3)CC2)c1` [compound 920] stands 3 (Class 3 The value of percent of control at 10^−7 M was more than 60% or the value of IC50 was more than 200 nM.).
`CN(C)c1ccnc(N[C@H]2CC[C@@H](CNC(=O)c3ccccc3SC(F)F)CC2)n1` [compound 427]: the class under setting [2] is recorded as 3 (Class 3 The value of percent of control at 10^−7 M was more than 60% or the value of IC50 was more than 200 nM.).
Take `CCCc1c(CNC[C@H]2CC[C@@H](Nc3cc(N(C)C)c4ccccc4n3)CC2)cnn1-c1ccccc1` [compound 1478]: the class under setting [1] is 1 (Class 1: The value of percent of control at 10^−7 M was less than 40% or the value of IC50 was less than 50 nM.).
Same read-out and setting: the same measure for `CN(C)c1nc(N[C@H]2CC[C@@H](NC(=O)Nc3ccc(C(F)(F)F)cc3Cl)CC2)nc2c1CCCC2` [compound 1853]: 3 (Class 3 The value of percent of control at 10^−7 M was more than 60% or the value of IC50 was more than 200 nM.); for `COc1cc(C(=O)N[C@H]2CC[C@@H](Nc3cc(N(C)C)c4ccccc4n3)CC2)cc(OC)c1O` [compound 784]: 3 (Class 3 The value of percent of control at 10^−7 M was more than 60% or the value of IC50 was more than 200 nM.).
For `COC(=O)NC[C@H]1CC[C@@H](Nc2nccc(N(C)C)n2)CC1` [compound 1655], the class under setting [3] is 3 (Class 3 The value of percent of control at 10^−7 M was more than 60% or the value of IC50 was more than 200 nM.).
On to `Cc1cccc(C(C)(C)C)c1NC(=O)N[C@H]1CC[C@@H](Nc2cc(N(C)C)c3ccccc3n2)CC1` [compound 2113, N-(2-tert-butyl-6-methylphenyl)-N′-(cis-4-{[4-(dimethylamino)quinolin-2-yl]amino}cyclohexyl)urea], for which the class under setting [1] is 1 (Class 1: The value of percent of control at 10^−7 M was less than 40% or the value of IC50 was less than 50 nM.).
With `Cc1cccc(C(=O)N[C@H]2CC[C@@H](Nc3nc4c(c(N(C)C)n3)CCCC4)CC2)c1N` [compound 1058], the class under setting [4] is recorded as 3 (Class 3 The value of percent of control at 10^−7 M was more than 60% or the value of IC50 was more than 200 nM.).
Consider `COCCOC(=O)NC[C@H]1CC[C@@H](Nc2nc3c(c(N(C)C)n2)CCCC3)CC1` [compound 1605], for which the class under setting [3] is 3 (Class 3 The value of percent of control at 10^−7 M was more than 60% or the value of IC50 was more than 200 nM.).
Consider `COc1cc(CN[C@H]2CC[C@@H](Nc3cc(N(C)C)c4ccccc4n3)CC2)ccc1O` [compound 1120], for which, under setting [4], the class is listed as 3 (Class 3 The value of percent of control at 10^−7 M was more than 60% or the value of IC50 was more than 200 nM.).
Take `CN(C)c1ccnc(N[C@H]2CC[C@@H](NC(=S)Nc3ccc(Br)cc3C(F)(F)F)CC2)n1` [compound 2330]: under setting [5], the class is on record as 3 (Class 3 The value of percent of control at 10^−7 M was more than 60% or the value of IC50 was more than 200 nM.).
Turning to `CN(C)c1ccnc(N[C@H]2CC[C@@H](NC(=O)NCc3ccc(Br)cc3)CC2)n1` [compound 2243], under setting [1], the class is recorded as 3 (Class 3 The value of percent of control at 10^−7 M was more than 60% or the value of IC50 was more than 200 nM.).
Take `Cc1cc(N[C@H]2CC[C@@H](NC(=O)Nc3ccc(Oc4ccccc4)cc3)CC2)nc2ccccc12` [Example 2559, N-{cis-4-[(4-methylquinolin-2-yl)amino]cyclohexyl}-N′-(4-phenoxyphenyl)urea]: the class is on record as 1.
Consider `CN(C)c1nc(N[C@H]2CC[C@@H](NC(=O)c3ccc(C#N)cc3)CC2)nc2c1CCCC2` [compound 513], for which the class under setting [2] was 3 (Class 3 The value of percent of control at 10^−7 M was more than 60% or the value of IC50 was more than 200 nM.).
On to `Cc1cnc(N[C@H]2CC[C@@H](NC(=O)CN(C)c3cccc(F)c3)CC2)nc1N(C)C` [compound 2943], for which the class under setting [6] is recorded as 1 (Class 1: The value of percent of control at 10^−7 M was less than 40% or the value of IC50 was less than 50 nM.).
Take `CN(C)c1ccnc(N[C@H]2CC[C@@H](CNC(=O)/C=C/c3ccccc3)CC2)n1` [compound 371]: the class under setting [1] is 2 (Class 2: The value of percent of control at 10^−7 M was from 40% to 60% or the value of IC′50 was from 50 nM to 200 nM.).
On to `CN(C)c1nc(N[C@H]2CC[C@@H](NC(=S)Nc3cccc(OCc4ccccc4)c3)CC2)nc2c1CCCC2` [compound 2008], for which the class under setting [7] is 3 (Class 3 The value of percent of control at 10^−7 M was more than 60% or the value of IC50 was more than 200 nM.).
As for `CN(C)c1nc(N[C@H]2CC[C@@H](CNC(=O)c3c(F)cccc3Cl)CC2)nc2c1CCCC2` [compound 667], under setting [1], the class is listed as 2 (Class 2: The value of percent of control at 10^−7 M was from 40% to 60% or the value of IC′50 was from 50 nM to 200 nM.).
Same read-out and setting: under `COc1cc(CNC[C@H]2CC[C@@H](Nc3nccc(N(C)C)n3)CC2)cc(I)c1O` [compound 1260] stands 1 (Class 1: The value of percent of control at 10^−7 M was less than 40% or the value of IC50 was less than 50 nM.).
With `CC(CCN[C@H]1CC[C@@H](Nc2cc(N(C)C)c3ccccc3n2)CC1)c1ccccc1` (relative stereo) [compound 1106], the class under setting [4] is reported as 3 (Class 3 The value of percent of control at 10^−7 M was more than 60% or the value of IC50 was more than 200 nM.).
Regarding `CCc1cccc(C(=O)N[C@H]2CC[C@@H](Nc3ncc(C)c(N(C)C)n3)CC2)c1` [compound 2925, N-(cis-4-{[4-(dimethylamino)-5-methylpyrimidin-2-yl]amino}cyclohexyl)-3-ethylbenzamide], the class under setting [6] is on record as 1 (Class 1: The value of percent of control at 10^−7 M was less than 40% or the value of IC50 was less than 50 nM.).
With `Cc1cccc(C(=O)NC[C@H]2CC[C@@H](Nc3cc(N(C)C)c4ccccc4n3)CC2)c1` [compound 177, N-[(cis-4-{[4-(dimethylamino)quinolin-2-yl]amino}cyclohexyl)methyl]-3-methylbenzamide], under setting [7], the class was 3 (Class 3 The value of percent of control at 10^−7 M was more than 60% or the value of IC50 was more than 200 nM.).
As for `Cc1ccc(S(=O)(=O)N[C@H](CN[C@H]2CC[C@@H](Nc3cc(N(C)C)c4ccccc4n3)CC2)Cc2ccccc2)cc1` [compound 1456], under setting [1], the class is 3 (Class 3 The value of percent of control at 10^−7 M was more than 60% or the value of IC50 was more than 200 nM.).
On to `CN(C)c1cc(N[C@H]2CC[C@@H](NC(=O)c3cn(S(=O)(=O)c4ccccc4)c4ccccc34)CC2)nc2ccccc12` [compound 769], for which, under setting [1], the class is 3 (Class 3 The value of percent of control at 10^−7 M was more than 60% or the value of IC50 was more than 200 nM.).
`Cc1cccc(C(=O)N[C@H]2CC[C@@H](Nc3nc(C)c(C)c(N(C)C)n3)CC2)c1` [compound 2837, N-(cis-4-{[4-(dimethylamino)-5,6-dimethylpyrimidin-2-yl]amino}cyclohexyl)-3-methylbenzamide]: the class under setting [6] is on record as 1 (Class 1: The value of percent of control at 10^−7 M was less than 40% or the value of IC50 was less than 50 nM.).
With `C=C(C)c1cccc(C(C)(C)NC(=O)N[C@H]2CC[C@@H](Nc3nccc(N(C)C)n3)CC2)c1` [compound 2218], under setting [1], the class is on record as 3 (Class 3 The value of percent of control at 10^−7 M was more than 60% or the value of IC50 was more than 200 nM.).
On the same count and under the same terms, under `CN(C)c1ccnc(N[C@H]2CC[C@@H](NC(=O)c3ccc(Cl)c([N+](=O)[O-])c3)CC2)n1` [compound 245, 4-chloro-N-(cis-4-{[4-(dimethylamino)pyrimidin-2-yl]amino}cyclohexyl)-3-nitrobenzamide] stands 1 (Class 1: The value of percent of control at 10^−7 M was less than 40% or the value of IC50 was less than 50 nM.).
Consider `CCOc1cc(CNC[C@H]2CC[C@@H](Nc3cc(N(C)C)c4ccccc4n3)CC2)ccc1OC` [compound 1134], for which the class under setting [4] is 3 (Class 3 The value of percent of control at 10^−7 M was more than 60% or the value of IC50 was more than 200 nM.).
As for `CN(C)c1ccnc(N[C@H]2CC[C@@H](NC(=O)c3cccc(-n4c(-c5ccc(Br)cc5)cc5c4CC(C)(C)CC5=O)c3)CC2)n1` [compound 859], the class under setting [1] was 3 (Class 3 The value of percent of control at 10^−7 M was more than 60% or the value of IC50 was more than 200 nM.).
With `CN(C)c1nc(N[C@H]2CC[C@@H](NC(=S)Nc3cccc(Cl)c3Cl)CC2)nc2c1CCCC2` [compound 1971], the class under setting [7] was 3 (Class 3 The value of percent of control at 10^−7 M was more than 60% or the value of IC50 was more than 200 nM.).
Turning to `CN(C)c1nc(N[C@H]2CC[C@@H](NC(=S)Nc3cccc([N+](=O)[O-])c3)CC2)nc2c1CCCC2` [compound 1952], the class under setting [7] was 3 (Class 3 The value of percent of control at 10^−7 M was more than 60% or the value of IC50 was more than 200 nM.).
As for `CN(C)c1cc(N[C@H]2CC[C@@H](NC(=O)[C@H](Cc3cn(Cc4ccccc4)cn3)NC(=O)OC(C)(C)C)CC2)nc2ccccc12` [compound 709], under setting [1], the class is on record as 3 (Class 3 The value of percent of control at 10^−7 M was more than 60% or the value of IC50 was more than 200 nM.).
In the case of `Cc1cnc(N[C@H]2CC[C@@H](CNC(=O)c3ccc(Br)cc3)CC2)nc1N(C)C` [compound 2702], the class under setting [6] was 1 (Class 1: The value of percent of control at 10^−7 M was less than 40% or the value of IC50 was less than 50 nM.).
For `CN(C)c1nc(N[C@H]2CC[C@@H](CNCc3c[nH]c4ccc(Br)cc34)CC2)nc2c1CCCC2` [compound 1372], the class under setting [1] is 1 (Class 1: The value of percent of control at 10^−7 M was less than 40% or the value of IC50 was less than 50 nM.).
Consider `CC(C)c1cccc(C(C)C)c1NC(=O)NC[C@H]1CC[C@@H](Nc2nccc(N(C)C)n2)CC1` [compound 2442], for which, under setting [5], the class is 1 (Class 1: The value of percent of control at 10^−7 M was less than 40% or the value of IC50 was less than 50 nM.).

These data come from US20050197350A1, “Novel quinoline, tetrahydroquinazoline, and pyrimidine derivatives and methods of treatment related to the use thereof” (TAISHO PHARMACEUTICAL CO., LTD., priority 2003, published 2005).
